Results from PubChem BioAssay (NCI).
Where “and” joins values, the source holds several entries; their conditions need not be identical. Equal values may be shown once.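 Grown in 96-well plates, cells were treated for 48 hours with each compound at five concentrations. Insufficient inhibition: endpoint recorded as highest concentration tested. Here, GI50 denotes the concentration required for 50% inhibition of growth. TGI marks complete inhibition of growth.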

Legend:
Test in all cases: NCI tumour cell line growth inhibition, 48 h
BT-549 breast = test system: BT-549 breast
LOX IMVI melanoma = test system: LOX IMVI melanoma
786-0 renal = test system: 786-0 renal
M19-MEL melanoma = test system: M19-MEL melanoma
SF-295 CNS = test system: SF-295 CNS
NCI-H23 lung = test system: NCI-H23 lung
EKVX NSCLC = test system: EKVX NSCLC
HCT-116 colon = test system: HCT-116 colon
MOLT-4 leukemia = test system: MOLT-4 leukemia
TK-10 renal = test system: TK-10 renal
HOP-62 NSCLC = test system: HOP-62 NSCLC
DLD-1 colon = test system: DLD-1 colon
SK-MEL-5 melanoma = test system: SK-MEL-5 melanoma
SW-620 colon = test system: SW-620 colon
A549 NSCLC = test system: A549 NSCLC
OVCAR-4 ovarian = test system: OVCAR-4 ovarian
UO-31 renal = test system: UO-31 renal
MDA-MB-435 = test system: MDA-MB-435
A498 renal = test system: A498 renal
ACHN renal = test system: ACHN renal
COLO 205 colon = test system: COLO 205 colon
IGROV1 ovarian = test system: IGROV1 ovarian
HCC-2998 colon = test system: HCC-2998 colon
NCI-H460 lung = test system: NCI-H460 lung
NCI-H522 lung = test system: NCI-H522 lung
P388/ADR leukemia = test system: P388/ADR leukemia
OVCAR-8 ovarian = test system: OVCAR-8 ovarian
LXFL 529 NSCLC = test system: LXFL 529 NSCLC
HOP-18 NSCLC = test system: HOP-18 NSCLC
RXF-631 renal = test system: RXF-631 renal
OVCAR-3 ovarian = test system: OVCAR-3 ovarian
HL-60(TB) leukemia = test system: HL-60(TB) leukemia
K-562 leukemia = test system: K-562 leukemia
SK-OV-3 ovarian = test system: SK-OV-3 ovarian
CAKI-1 renal = test system: CAKI-1 renal
CCRF-CEM leukemia = test system: CCRF-CEM leukemia
DMS 273 small cell lung = test system: DMS 273 small cell lung
RPMI-8226 leukemia = test system: RPMI-8226 leukemia
KM12 colon = test system: KM12 colon
U251 CNS = test system: U251 CNS
OVCAR-5 ovarian = test system: OVCAR-5 ovarian
MDA-N = test system: MDA-N
UACC-62 melanoma = test system: UACC-62 melanoma
RXF 393 renal = test system: RXF 393 renal
SF-539 CNS = test system: SF-539 CNS
SN12C renal = test system: SN12C renal
DU-145 prostate = test system: DU-145 prostate
SK-MEL-2 melanoma = test system: SK-MEL-2 melanoma
HOP-92 NSCLC = test system: HOP-92 NSCLC
SN12K1 renal = test system: SN12K1 renal
SNB-75 CNS = test system: SNB-75 CNS
SNB-78 CNS = test system: SNB-78 CNS
HCT-15 colon = test system: HCT-15 colon
SNB-19 CNS = test system: SNB-19 CNS
SF-268 CNS = test system: SF-268 CNS
MALME-3M melanoma = test system: MALME-3M melanoma
KM20L2 colon = test system: KM20L2 colon
NCI-H226 lung = test system: NCI-H226 lung
P388 leukemia = test system: P388 leukemia
UACC-257 melanoma = test system: UACC-257 melanoma
HT29 colon = test system: HT29 colon
SR leukemia = test system: SR leukemia
DMS 114 small cell lung = test system: DMS 114 small cell lung
M14 melanoma = test system: M14 melanoma

For `COc1cc(NS(C)(=O)=O)ccc1Nc1c2ccccc2nc2ccccc12`, which GI50 (BT-549 breast) is on record?
The GI50 was 3.14 µM [middle of 4 runs].

What about the GI50 (LOX IMVI melanoma) of the same molecule?
Its GI50 is 351 nM and 306 nM and 310 nM.

What about the GI50 (786-0 renal) of the same molecule?
The GI50 was 458 nM and 279 nM and 270 nM.

What about the TGI (786-0 renal) of the same molecule?
The TGI was 1.77 µM [middle of 8 runs].

And the GI50 (M19-MEL melanoma)?
The GI50 was 1540 nM and 5950 nM.

And the TGI (M19-MEL melanoma)?
The TGI was 17600 nM and 30800 nM and 8440 nM.

What about the GI50 (SF-295 CNS) of the same molecule?
Its GI50 is 405 nM and 166 nM and 136 nM.

And the GI50 (NCI-H23 lung)?
The GI50 was 550 nM and 377 nM and 368 nM.

And the GI50 (EKVX NSCLC)?
The GI50 was 4770 nM and 3010 nM and 2840 nM.

And the GI50 (HCT-116 colon)?
Its GI50 is 820 nM and 368 nM and 424 nM.

And the GI50 (MOLT-4 leukemia)?
Its GI50 is 181 nM and 45.3 nM and < 25 nM.

And the GI50 (TK-10 renal)?
Its GI50 is 4720 nM and 854 nM and 911 nM.

What about the GI50 (HOP-62 NSCLC) of the same molecule?
Its GI50 is 551 nM and 221 nM and 198 nM.

And the GI50 (DLD-1 colon)?
The GI50 was 3580 nM and 15300 nM.

What about the TGI (DLD-1 colon) of the same molecule?
Its TGI is 16200 nM and 35100 nM and 7540 nM.

What about the GI50 (SK-MEL-5 melanoma) of the same molecule?
The GI50 was 618 nM and 282 nM.

And the GI50 (SW-620 colon)?
The GI50 was 1490 nM and 242 nM and 351 nM.

And the GI50 (A549 NSCLC)?
Its GI50 is 198 nM and 63.5 nM and 63.7 nM.

And the GI50 (OVCAR-4 ovarian)?
Its GI50 is 12600 nM and 5080 nM.

And the GI50 (UO-31 renal)?
The GI50 was 1390 nM and 288 nM and 231 nM.

And the GI50 (MDA-MB-435)?
The GI50 was 3040 nM and 11000 nM and 7260 nM.

And the GI50 (A498 renal)?
Its GI50 is 1610 nM and 237 nM and 405 nM.

What about the GI50 (ACHN renal) of the same molecule?
Its GI50 is 311 nM and 194 nM and 183 nM.

And the GI50 (COLO 205 colon)?
The GI50 was 715 nM and 1110 nM.

What about the GI50 (IGROV1 ovarian) of the same molecule?
Its GI50 is 1590 nM and 1440 nM and 826 nM.

What about the GI50 (HCC-2998 colon) of the same molecule?
The GI50 was 2400 nM and 2190 nM and 2340 nM.

What about the GI50 (NCI-H460 lung) of the same molecule?
Its GI50 is 58.7 nM and 33.8 nM and 42.5 nM.

What about the GI50 (NCI-H522 lung) of the same molecule?
Its GI50 is 3270 nM and 552 nM.

What about the TGI (P388/ADR leukemia) of the same molecule?
Its TGI is 5510 nM.

What about the GI50 (OVCAR-8 ovarian) of the same molecule?
The GI50 was 1330 nM and 904 nM and 1030 nM.

What about the GI50 (LXFL 529 NSCLC) of the same molecule?
Its GI50 is 5370 nM and 5420 nM.

And the TGI (LXFL 529 NSCLC)?
Its TGI is 17900 nM and 22700 nM and 8920 nM.

What about the GI50 (HOP-18 NSCLC) of the same molecule?
The GI50 was 878 nM.

What about the TGI (HOP-18 NSCLC) of the same molecule?
Its TGI is 5230 nM and 3510 nM.

What about the GI50 (RXF-631 renal) of the same molecule?
Its GI50 is 388 nM and 431 nM.

What about the TGI (RXF-631 renal) of the same molecule?
The TGI was 4300 nM and 2930 nM and 5340 nM.

What about the GI50 (OVCAR-3 ovarian) of the same molecule?
The GI50 was 4000 nM.

And the TGI (OVCAR-3 ovarian)?
The TGI was 7.66 µM [middle of 8 runs].

What about the GI50 (HL-60(TB) leukemia) of the same molecule?
The GI50 was 298 nM and 180 nM and < 37.9 nM.

What about the GI50 (K-562 leukemia) of the same molecule?
The GI50 was 1940 nM and 1870 nM and 624 nM.

And the GI50 (SK-OV-3 ovarian)?
Its GI50 is 557 nM and 239 nM and 288 nM.

And the GI50 (CAKI-1 renal)?
Its GI50 is 550 nM and 213 nM and 308 nM.

And the GI50 (CCRF-CEM leukemia)?
Its GI50 is 91.8 nM and 182 nM and 105 nM.

And the GI50 (DMS 273 small cell lung)?
Its GI50 is 53.5 nM and 128 nM.

What about the TGI (DMS 273 small cell lung) of the same molecule?
Its TGI is 2720 nM and 12000 nM and 2020 nM.

And the GI50 (RPMI-8226 leukemia)?
The GI50 was 4070 nM and 2000 nM.

What about the GI50 (KM12 colon) of the same molecule?
The GI50 was 1710 nM and 1680 nM.

And the TGI (KM12 colon)?
The TGI was 11.4 µM [middle of 8 runs].

What about the GI50 (U251 CNS) of the same molecule?
Its GI50 is 528 nM and 350 nM and 358 nM.

What about the GI50 (OVCAR-5 ovarian) of the same molecule?
Its GI50 is 8100 nM and 5640 nM and 6810 nM.

What about the GI50 (MDA-N) of the same molecule?
The GI50 was 4000 nM.

And the TGI (MDA-N)?
The TGI was 7410 nM and 16600 nM and 11500 nM.

And the GI50 (UACC-62 melanoma)?
The GI50 was 491 nM and 951 nM and 705 nM.

And the GI50 (RXF 393 renal)?
The GI50 was 3370 nM and 2180 nM and 2230 nM.

What about the GI50 (SF-539 CNS) of the same molecule?
Its GI50 is 531 nM and 360 nM and 410 nM.

What about the TGI (SF-539 CNS) of the same molecule?
The TGI was 2.27 µM [middle of 7 runs].

What about the GI50 (SN12C renal) of the same molecule?
The GI50 was 432 nM and 273 nM and 307 nM.

And the TGI (DU-145 prostate)?
The TGI was 2.59 µM [middle of 5 runs].

And the GI50 (SK-MEL-2 melanoma)?
Its GI50 is 18000 nM and 4550 nM and 5730 nM.

What about the GI50 (HOP-92 NSCLC) of the same molecule?
The GI50 was 2590 nM and 604 nM.

And the TGI (SN12K1 renal)?
Its TGI is 4040 nM.

What about the GI50 (SNB-75 CNS) of the same molecule?
The GI50 was 221 nM and 335 nM and 341 nM.

What about the GI50 (SNB-78 CNS) of the same molecule?
Its GI50 is 5790 nM and 10600 nM.

What about the TGI (SNB-78 CNS) of the same molecule?
Its TGI is 17700 nM and 36500 nM and 14400 nM.

What about the GI50 (HCT-15 colon) of the same molecule?
The GI50 was 1700 nM and 1380 nM and 1450 nM.

What about the GI50 (SNB-19 CNS) of the same molecule?
Its GI50 is 528 nM and 464 nM and 495 nM.

And the GI50 (SF-268 CNS)?
The GI50 was 1140 nM and 483 nM and 511 nM.

And the GI50 (MALME-3M melanoma)?
Its GI50 is 1270 nM and 511 nM and 515 nM.

What about the GI50 (KM20L2 colon) of the same molecule?
Its GI50 is 2180 nM and 3410 nM.

What about the TGI (KM20L2 colon) of the same molecule?
The TGI was 12100 nM and 15300 nM and 5780 nM.

And the GI50 (NCI-H226 lung)?
The GI50 was 256 nM and 260 nM and 220 nM.

What about the TGI (P388 leukemia) of the same molecule?
Its TGI is 391 nM.

What about the GI50 (UACC-257 melanoma) of the same molecule?
The GI50 was 11800 nM and 5930 nM.

What about the GI50 (HT29 colon) of the same molecule?
Its GI50 is 1370 nM and 888 nM and 991 nM.

And the GI50 (SR leukemia)?
Its GI50 is 47.5 nM and 24.5 nM.

And the GI50 (DMS 114 small cell lung)?
The GI50 was 114 nM and 98.1 nM.

What about the TGI (DMS 114 small cell lung) of the same molecule?
Its TGI is 6540 nM and 1520 nM and 4560 nM.

And the GI50 (M14 melanoma)?
The GI50 was 526 nM and 397 nM and 447 nM.
